The term Kd denotes the free concentration of one partner at which half of the binding sites on the other are occupied at equilibrium, for simple one-to-one binding. Usually Km stands for the concentration of substrate that gives half-maximal velocity.

These results are taken from paper PMC9728198, “Characterization of Two Self-Sufficient Monooxygenases, CYP102A15 and CYP102A170, as Long-Chain Fatty Acid Hydroxylases” (Journal of Microbiology and Biotechnology, 2020).

“And” between values parts separate entries of the source, which are not always exact repeats. Equal values may be shown once. Read-outs that look alike come from different tables or passages of the source.

The target in data set [1] is T1, CYP102A15 (Bacillus sp. (in: firmicutes), UniProt A0A2S1UG59). Put plainly: NADPH consumption assay and kinetic parameters. The note with it: for CE (coupling efficiency) / PFR (product formation rate) / Km: CYP102A15; for Km: read-out: Km (Michaelis–Menten constant).
Protocol: (§1) The NADPH consumption assay was performed at 340 nm. […] The total volume of the reaction was 250 μl. The obtained data were analyzed using GraphPad Prism software, and experiments were replicated at least three times.
(§2) Saturated fatty acids, unsaturated fatty acids and other cyclic compounds were the three main types of substrates used to determine the NADPH oxidation rate. […] The coupling efficiencies, product formation rates (PFR), and Michaelis–Menten constants (Km) of CYP102A15 and CYP102A170 were also investigated.
The target of data set [2] is T1, CYP102A15. The data set can be described thus: Spectral substrate binding titration (low-spin to high-spin Soret shift).
Protocol: (§3) The binding affinity was evaluated by spectrometrically analyzing the enzyme binding of each substrate.
(§4) At the beginning, substrates were selected as fatty acids with different chain lengths and the unsaturation extent was tested for enzyme binding capacity. Substrate binding was observed by alternating from low-spin heme iron with a Soret band maximum at 419 nm in the UV-visible spectrum to high-spin heme iron with a Soret band maximum at 389 nm (Figs. 4, S3, and S4).
In data set [3] the target is T2, CYP102A170 (Paenibacillus sp., UniProt A0A2U8SZJ5). Described as above.
Protocol: as §3, §4
In data set [4] the target is T2, CYP102A170.
Protocol: as §1, §2
Data set [5] addresses T2, CYP102A170. Put plainly: NADPH consumption assay and kinetic parameters. To be noted: for Km: read-out: Km (Michaelis–Menten constant).
Protocol: as §1, §2
For data set [6], the system named is CCCCCCCCCCCCCC(=O)O. The data set can be described thus: purified protein, by the assay type.
Protocol: as §1, §2
[7] abbreviates: read-out: Kd (dissociation constant), CYP102A15, single-binding model for spectral change ΔA (A389–A419), 1 μM of protein.
The mark [8] stands for this setting: read-out: Kd (dissociation constant), CYP102A170, single-binding model for spectral change ΔA (A390–A420), 1 μM of protein.

T2 sequence (A0A2U8SZJ5 1-1057 limits assumed): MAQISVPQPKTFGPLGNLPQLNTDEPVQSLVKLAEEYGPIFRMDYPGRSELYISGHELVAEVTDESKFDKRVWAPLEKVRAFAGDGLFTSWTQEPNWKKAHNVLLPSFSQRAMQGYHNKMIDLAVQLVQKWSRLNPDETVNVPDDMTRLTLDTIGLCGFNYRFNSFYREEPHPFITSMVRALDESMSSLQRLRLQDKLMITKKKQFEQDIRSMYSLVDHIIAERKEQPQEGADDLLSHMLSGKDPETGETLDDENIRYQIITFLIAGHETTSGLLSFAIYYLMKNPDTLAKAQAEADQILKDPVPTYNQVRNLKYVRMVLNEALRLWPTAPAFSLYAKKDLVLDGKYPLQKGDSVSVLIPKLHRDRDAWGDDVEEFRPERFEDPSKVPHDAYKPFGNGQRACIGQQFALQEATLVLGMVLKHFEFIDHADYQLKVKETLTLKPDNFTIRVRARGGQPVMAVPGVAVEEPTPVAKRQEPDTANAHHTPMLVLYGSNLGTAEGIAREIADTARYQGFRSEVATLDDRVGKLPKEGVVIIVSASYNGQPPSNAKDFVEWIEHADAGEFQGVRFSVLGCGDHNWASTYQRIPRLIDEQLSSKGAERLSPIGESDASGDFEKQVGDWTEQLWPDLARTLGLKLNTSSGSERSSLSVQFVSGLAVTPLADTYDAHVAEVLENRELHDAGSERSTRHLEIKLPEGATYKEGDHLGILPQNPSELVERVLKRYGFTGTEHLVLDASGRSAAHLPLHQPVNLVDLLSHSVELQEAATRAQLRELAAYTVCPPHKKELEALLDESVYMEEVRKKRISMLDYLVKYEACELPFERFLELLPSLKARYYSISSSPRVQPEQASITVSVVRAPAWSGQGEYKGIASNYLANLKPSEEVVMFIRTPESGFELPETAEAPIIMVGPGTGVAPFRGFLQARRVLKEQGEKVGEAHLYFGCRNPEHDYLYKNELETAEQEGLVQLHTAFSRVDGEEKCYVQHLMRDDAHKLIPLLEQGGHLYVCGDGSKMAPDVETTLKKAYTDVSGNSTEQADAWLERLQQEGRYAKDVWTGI
T1 sequence (A0A2S1UG59 1-1047): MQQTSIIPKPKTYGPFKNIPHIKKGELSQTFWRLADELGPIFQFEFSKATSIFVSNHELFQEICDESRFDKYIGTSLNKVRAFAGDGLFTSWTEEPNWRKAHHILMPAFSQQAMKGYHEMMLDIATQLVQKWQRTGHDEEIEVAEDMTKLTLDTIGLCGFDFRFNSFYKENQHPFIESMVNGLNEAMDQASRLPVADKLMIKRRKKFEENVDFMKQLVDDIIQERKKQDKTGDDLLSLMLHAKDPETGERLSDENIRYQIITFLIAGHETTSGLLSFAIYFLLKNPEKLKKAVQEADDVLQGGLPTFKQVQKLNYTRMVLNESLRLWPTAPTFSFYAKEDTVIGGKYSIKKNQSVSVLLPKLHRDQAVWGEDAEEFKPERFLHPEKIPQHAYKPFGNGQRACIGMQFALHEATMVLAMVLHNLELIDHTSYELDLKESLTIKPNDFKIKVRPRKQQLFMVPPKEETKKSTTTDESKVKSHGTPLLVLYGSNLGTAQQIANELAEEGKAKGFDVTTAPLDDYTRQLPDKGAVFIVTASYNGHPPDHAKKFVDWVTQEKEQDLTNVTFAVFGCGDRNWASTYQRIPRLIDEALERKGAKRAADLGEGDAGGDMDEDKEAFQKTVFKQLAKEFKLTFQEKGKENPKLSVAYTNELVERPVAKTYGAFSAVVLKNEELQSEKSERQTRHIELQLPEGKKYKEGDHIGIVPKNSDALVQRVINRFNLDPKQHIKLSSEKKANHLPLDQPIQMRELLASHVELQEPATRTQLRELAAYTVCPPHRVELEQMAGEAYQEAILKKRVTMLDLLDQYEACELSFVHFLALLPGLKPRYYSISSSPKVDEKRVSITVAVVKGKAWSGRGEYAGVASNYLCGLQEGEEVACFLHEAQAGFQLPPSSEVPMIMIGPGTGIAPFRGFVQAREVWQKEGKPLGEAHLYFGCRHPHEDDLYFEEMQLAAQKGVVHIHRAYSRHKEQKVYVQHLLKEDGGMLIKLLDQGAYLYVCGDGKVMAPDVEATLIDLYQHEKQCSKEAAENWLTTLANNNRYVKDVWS

For `CCOc1ccc2ccc(=O)oc2c1` [7-ethoxycoumarin], in data set [1] (data not shown, sentence does not name the enzyme, b46 names CYP102A15), the “NADPH consumption with cyclic compounds (in words)” value was “consumed the NADPH”.

With `CCCCC/C=C\C/C=C\C/C=C\C/C=C\CCCC(=O)O` [Arachidonic acid], the Kd in data set [2] stood at 29.8 ± 1.8 µM.

Take `CC/C=C\C/C=C\C/C=C\C/C=C\C/C=C\CCCC(=O)O` [Eicosapentaenoic acid]: the figures for the Kd in data set [2] and in data set [3] were 18.8 ± 3.8 µM and 1.3 ± 0.08 µM, respectively.

`CCCCCCCCCCCC(=O)O` [Lauric acid]: the “CE (coupling efficiency)” value in data set [4] was found to be 72%; in data set [1], 90%. For the same molecule, the “PFR (product formation rate)” value in data set [1] is recorded as 7.00 ± 0.10 nmol/ nmol-P450/min; in data set [5], 31.68 ± 0.70 nmol/ nmol-P450/min. Moreover, the Km was 21.7 ± 3.6 µM in data set [1] and 13.4 ± 1.3 µM in data set [5]. The Kd in data set [2] (setting [7]) is 7.78 ± 0.7 µM; in data set [3] (setting [8]), 6.46 ± 0.3 µM.

As for `CCCCC/C=C\C/C=C\CCCCCCCC(=O)O` [Linoleic acid], in data set [1], the “CE (coupling efficiency)” value is given as 68%, the “PFR (product formation rate)” value was determined as 2.70 ± 0.30 nmol/ nmol-P450/min and the Km is 15.3 ± 4.7 µM. The Kd in data set [2] came out at 13.9 ± 1.5 µM. Besides, in data set [3], the Kd came to 1.36 ± 0.23 µM.

Consider `CCCCCCCCCCCCCCCCC(=O)O` [Margaric acid], for which, in data set [5] (250 μM NADPH, 200 μM fatty acid, 0.5–1 μM enzyme, 340 nm), the NADPH consumption rate came out at 8.2 nmol/nmol-CYP/min. In addition, the figures for the Kd in data set [2] (setting [7]) and in data set [3] (setting [8]) were 17.9 ± 1.21 µM and 2.83 ± 0.17 µM, respectively.

Turning to `CCCCCCCCCCCCCC(=O)O` [Myristic acid], the results for the “CE (coupling efficiency)” value in data set [1] and in data set [5] were 80% and 67%, respectively. Besides, the “PFR (product formation rate)” value in data set [1] was determined as 35.91 ± 1.20 nmol/ nmol-P450/min; in data set [5], 37.52 ± 1.90 nmol/ nmol-P450/min. Further, the Kd in data set [2] amounted to 14.9 ± 0.68 µM; in data set [3], 9.89 ± 0.39 µM.

For `CCCCCCCC/C=C\CCCCCCCC(=O)O` [Oleic acid], the “CE (coupling efficiency)” value in data set [4] is reported as 51%; in data set [1], 85%. Moreover, the “PFR (product formation rate)” value in data set [1] is 23.10 ± 5.30 nmol/ nmol-P450/min; in data set [5], 41.50 ± 1.30 nmol/ nmol-P450/min. Besides, the Km in data set [1] was 39.1 ± 6.9 µM; in data set [5], 430 ± 98 µM. The results for the Kd in data set [2] and in data set [3] were 25.7 ± 2.8 µM and 2.23 ± 0.09 µM, respectively.

In the case of `CCCCCCCCCCCCCCCC(=O)O` [Palmitic acid], the Kd in data set [2] turned out to be 11 ± 1.3 µM; in data set [3], 5.01 ± 0.23 µM.

Regarding `CCCCCCCCCCCCCCCCCC(=O)O` [Stearic acid], the Kd in data set [3] is 3.37 ± 0.2 µM.

For the molecule “CYP102A15 (Bacillus sp. (in: firmicutes))”, the Michaelis constant (Km) in data set [6] (other: CYP102A15) stood at 386.10 ± 39.20 µM.

For CYP102A170 (Paenibacillus sp.), the Km in data set [6] (other: CYP102A170) is 17.4 µM and 17.43 ± 1.80 µM.
